Marks after values point to notes of the source that are not given here.
Experiments:
[1] = system: mice; experiment: Hot plate nocioception; assay type: in vivo; settings: hot plate 55° C.
Protocol: Mice were placed on an electric hot plate (Ominitech) at 55° C. and the latency time until the subject licked his hind paw was measured. If there was no response by 45 seconds, the trial was terminated. By this test there was no effect of AIT-082 on nocioception.

[2] = system: S100β; experiment: Summary of effects on growth factor mRNA and protein (Table R): S100β; parameters: key: ± = mRNA; + = protein; nt = not tested; settings: Cultured Cells
Description: The constellation of effects of AIT-082 on production of mRNA encoding growth factors and on production of growth factor proteins is shown in Table R. The results summarized in […] show both transcriptional and translational effects on growth factors that are in the categories of neurotrophins, pleiotrophins, members of the S100 family of EF hand calcium binding proteins, and members of the TGFβ superfamily. As indicated, effects have been shown at both the mRNA (transcriptional) and protein (translational) levels.

[3] = system: Swiss Webster mice; experiment: Win-shift T-maze memory test, Swiss Webster mice; assay type: in vivo; settings: for Win-shift Memory Test, Correct responses: 90-second inter-trial interval
Protocol: Male Swiss Webster mice six months (young adult) and eleven months (old) of age, obtained from the National Institute on Aging, were maintained in individual cages, on a […] light/dark cycle with continuous access to water. Food was limited so that the mice stabilized at 80% of free feeding weight. Mice were weighed and handled daily for one week. The win-shift model was run as described in the literature and consists of a T-maze in which the correct response alternates after each correct trial. The interval between trials is varied and allows for the determination of the longest period between trials that a subject can remember the correct response on the previous trial. This allows the measure of the duration of the memory trace. […] The reward goal box is alternated after each correct trial. Ten trials per mouse are run each day. […] The latency time to leave the start box is recorded as a measure of motivation, the running time (the time from leaving the start box to reaching the goal box) is recorded as a measure of performance, and the number of correct responses as a measure of memory.
The drugs used in this example are 4-((3-(1,6-dihydro-6-oxo-9-purin-9-yl)-1-oxopropyl)amino) benzoic acid (AIT-082), as an exemplary potassium salt, tacrine hydrochloride (tetrahydroaminoacridine, THA, Sigma Chemical Co., St. Louis, Mo.), and physostigmine, hemisulfate salt (PHY, Sigma Chemical Co., St. Louis, Mo.). The drugs were dissolved in saline and prepared fresh daily. All injections were made at a volume of 0.1 ml/10 grams body weight. When testing drug effects, intraperitoneal (i.p.) injections of AIT-082 or THA were made one hour prior to the start of testing. Due to its shorter duration of action, PHY was injected 30 minutes prior to testing. Control subjects receive a similar injection of saline (vehicle).
To determine the duration of the memory trace, subjects were administered drug or saline and 30 minutes (PHY) or 1 hour (AIT-082 or THA) later they were given a single reference run with the milk reward in both goal boxes. After the indicated inter-trial delay, subjects were returned to the start box and given the first test trial with the milk reward only in the goal box opposite to the one entered on the previous correct trial. The subjects were given 10 trials with the reward alternating only after correct responses.
To determine if tolerance to the biological effects of AIT-082 developed, drug or saline was administered daily for 18 days prior to the testing in the standard win-shift paradigm.

[4] = system: mice; experiment: Exploratory activity in novel large cage; assay type: in vivo; settings: 30 minutes
Protocol: To measure exploratory behavior, subjects received saline or AIT-082 administration, were placed in a novel large cage (25×48×16 cm, W×L×H), and movement was measured at one-minute intervals for 30 minutes. The large cage (San Diego Instruments, San Diego, Calif.) was equipped with vertical detectors and rearing movements were also recorded.

[5] = Plasma levels of AIT-082 in mice (HPLC); assay type: in vivo; settings: 30 mg/kg i.p., C57BL/6 mice, estimated
Protocol: Adult C57BL/6 mice were administered 30 mg/kg of AIT-082 in saline i.p. The animals were sacrificed by decapitation at […] after administration of AIT-082. Blood was collected in heparinized tubes, mixed and centrifuged at 2000 rpm for 15 minutes. The plasma supernatant was removed and stored at −70° C. until analysis. A high pressure liquid chromatography system was developed for the analytical measurement of AIT-082 in plasma and brain tissue. The assay developed was selective for AIT-082 in the presence of a number of closely related purine molecules. The sensitivity of the method was 0.1 microgram of AIT-082 per ml of plasma and 0.1 microgram of AIT-082 per milligram of brain tissue (wet weight).
The results of these determinations graphically represented in FIG. 1 where plasma levels of AIT-082 are provided at 5, 10, 15, 20, 30, 60, 90, and 120 minutes after administration of 30 mg/kg i.p. to C57BL/6 mice. From the data, it was estimated that the blood level of AIT-082 reached its peak at approximately 15 minutes.

[6] = system: neocortical astrocytes; experiment: NGF-like immunoreactivity in astrocyte culture medium (ELISA); assay type: cell-based, mouse; settings: astrocytes incubated with different concentrations
Protocol: Astrocytes appear to proliferate in response to extracellular guanosine or guanosine triphosphate (GTP). GTP or guanosine may also stimulate the release of trophic factors from cultures of neocortical astrocytes from neonatal mouse brains. Astrocytes were incubated with different concentrations of guanosine or GTP respectively. Neurotrophin imunoreactivity in the culture medium from treated cells was then measured by ELISA.
Briefly, 96 well Falcon plates (Fisher) were coated with […] of sheep mono-specific anti-NGF IgG (affinity column purified) contained in 0.1M sodium carbonate buffer pH 9.6. After an overnight incubation at 4° C. blocking solution (PBS with 10% goat serum) was added to remove excess antibody. After a four hour incubation at room temperature the plates were washed three times with PBS containing 0.05% Tween 20. The conditioned media and standard 2.5S HPLC purified NGF were added and incubated overnight. The next day plates were washed 3 times with PBS-0.05% Tween 20. The secondary antibody, rabbit mono-specific anti-NGF IgG conjugated with β-galactosidase (Pierce-SPDP method) (1:500 dilution) was added. The plates were incubated overnight at 4° C. The next day the plates were washed 3 times with PBS-0.05% Tween 20. […]
The ELISA assay detected neurotrophins NGF and NT-3 with ahnost equal affinity and BDNF with 100 times less affinity. […]

Compound | effect on nocioception (hot plate latency) [1] | S100β, effect on mRNA/protein production [2] | Win-shift Memory Test, Correct responses ([3]; AIT-082 0.5 mg/kg i.p.) | Win-shift Memory Test, Correct responses ([3]; AIT-082 30.0 mg/kg i.p.) | Tolerance ([3]; AIT-082 30.0 mg/kg daily for 18 days prior to win-shift testing) | onset of action ([3]; data not shown) [h] | duration of action ([3]; single dose of 60 mg/kg) | exploratory activity [4] | time at which blood level of AIT-082 reached its peak [5] | NGF-like immunoreactivity in the culture medium [6]
O=C(CCn1cnc2c(=O)[nH]cnc21)Nc1ccc(C(=O)O)cc1 [AIT-082, N-4-carboxyphenyl-3-(6-oxohydropurin-9-yl)propanamide] | no effect | + | 6.5* Correct responses/10 trials | 8.2* Correct responses/10 trials | 7.6* Correct responses/10 trials | 1 | more than seven days | No effects were noted | approximately 15 minutes | 
Nc1nc2c(ncn2[C@@H]2O[C@H](CO)[C@@H](O)[C@H]2O)c(=O)[nH]1 [guanosine] |  |  |  |  |  |  |  |  |  | increased the amount of NGF-like immunoreactivity
